Assay results from patent US20240262826A1, “WILD TYPE KIT INHIBITORS” (Blueprint Medicines Corporation, priority 2022, published 2024).

Columns and labels:
wild type c-kit = wild type c-kit (Homo sapiens (Human), UniProt P10721); experiment: PathScan phospho c-kit (Tyr719) sandwich ELISA in SCF-stimulated M-07e cells (pKIT assay); format: cell-based; settings: ELISA assay (values not marked *)
Procedure, shortened: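 Tyr719-phosphorylated c-kit was measured by colorimetric (TMB) sandwich ELISA in lysates of M-07e cells. Cells were starved 4 h without serum or GM-CSF, dosed 60 min at 37 °C with compound (8 points, duplicate, 0.25% DMSO), and stimulated 10 min with human SCF (500 ng/mL as added). IC50 values came from 4-parameter logistic regression.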

[1] = target: human P-glycoprotein (P-gp, MDR1) (Homo sapiens (Human), UniProt P08183); experiment: MDCK-MDR1 cell monolayer drug transport assay (P-gp efflux ratio); format: in vitro ADME; settings: pH 7.4, MDCK-MDR1 cells; for efflux ratio at 2 h, 1 µM: 1 uM concentration of compound, read-out: Pgp Efflux Ratio, 1 uM; for efflux ratio at 2 h, 0.1 µM: 0.1 uM concentration of compound (denoted by **), read-out: Pgp Efflux Ratio
Sequence of human P-glycoprotein (P-gp, MDR1) (P08183 whole entry): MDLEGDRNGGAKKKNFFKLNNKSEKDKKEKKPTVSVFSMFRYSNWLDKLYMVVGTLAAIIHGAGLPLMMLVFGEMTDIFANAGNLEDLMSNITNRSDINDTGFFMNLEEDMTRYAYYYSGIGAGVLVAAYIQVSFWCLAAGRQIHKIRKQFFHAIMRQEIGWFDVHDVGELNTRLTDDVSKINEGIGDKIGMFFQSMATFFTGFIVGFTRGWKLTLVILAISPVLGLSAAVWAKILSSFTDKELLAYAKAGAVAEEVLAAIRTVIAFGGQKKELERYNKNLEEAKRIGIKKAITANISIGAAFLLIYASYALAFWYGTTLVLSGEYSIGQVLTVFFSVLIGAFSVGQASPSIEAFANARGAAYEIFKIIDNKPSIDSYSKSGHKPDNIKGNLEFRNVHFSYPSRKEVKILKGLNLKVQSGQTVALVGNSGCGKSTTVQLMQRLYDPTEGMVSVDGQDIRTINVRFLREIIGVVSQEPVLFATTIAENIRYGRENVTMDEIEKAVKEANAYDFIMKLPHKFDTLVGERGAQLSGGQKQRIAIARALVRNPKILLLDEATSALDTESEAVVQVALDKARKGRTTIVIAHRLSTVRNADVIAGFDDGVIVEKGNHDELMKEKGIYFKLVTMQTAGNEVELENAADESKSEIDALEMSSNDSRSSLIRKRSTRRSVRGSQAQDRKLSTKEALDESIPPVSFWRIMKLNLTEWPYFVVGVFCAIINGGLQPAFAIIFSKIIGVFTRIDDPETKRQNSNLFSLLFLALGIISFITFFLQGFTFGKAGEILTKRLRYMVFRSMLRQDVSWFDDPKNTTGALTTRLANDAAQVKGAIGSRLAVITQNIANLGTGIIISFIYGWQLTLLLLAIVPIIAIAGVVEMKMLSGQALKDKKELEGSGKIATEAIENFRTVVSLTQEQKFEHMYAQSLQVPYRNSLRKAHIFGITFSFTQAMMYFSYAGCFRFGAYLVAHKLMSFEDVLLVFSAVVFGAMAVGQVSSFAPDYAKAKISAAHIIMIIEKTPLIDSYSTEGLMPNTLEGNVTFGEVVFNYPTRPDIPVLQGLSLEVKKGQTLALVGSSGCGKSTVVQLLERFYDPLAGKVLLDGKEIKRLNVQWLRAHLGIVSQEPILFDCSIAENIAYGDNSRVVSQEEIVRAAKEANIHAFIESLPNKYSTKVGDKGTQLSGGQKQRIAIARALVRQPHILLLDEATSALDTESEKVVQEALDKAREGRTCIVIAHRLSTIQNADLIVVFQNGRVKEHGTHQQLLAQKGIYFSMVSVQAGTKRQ
Procedure, shortened: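 P-gp substrate potential tested in MDCK-MDR1 monolayers on Transwell supports, cultured 4-8 days; monolayers with TEER <42 ohms·cm2 discarded. Transport run in HBSS (10 mM HEPES, pH 7.4) at 37° C with compound working solution at 1 μM.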

Sequence of wild type c-kit (P10721 26-976): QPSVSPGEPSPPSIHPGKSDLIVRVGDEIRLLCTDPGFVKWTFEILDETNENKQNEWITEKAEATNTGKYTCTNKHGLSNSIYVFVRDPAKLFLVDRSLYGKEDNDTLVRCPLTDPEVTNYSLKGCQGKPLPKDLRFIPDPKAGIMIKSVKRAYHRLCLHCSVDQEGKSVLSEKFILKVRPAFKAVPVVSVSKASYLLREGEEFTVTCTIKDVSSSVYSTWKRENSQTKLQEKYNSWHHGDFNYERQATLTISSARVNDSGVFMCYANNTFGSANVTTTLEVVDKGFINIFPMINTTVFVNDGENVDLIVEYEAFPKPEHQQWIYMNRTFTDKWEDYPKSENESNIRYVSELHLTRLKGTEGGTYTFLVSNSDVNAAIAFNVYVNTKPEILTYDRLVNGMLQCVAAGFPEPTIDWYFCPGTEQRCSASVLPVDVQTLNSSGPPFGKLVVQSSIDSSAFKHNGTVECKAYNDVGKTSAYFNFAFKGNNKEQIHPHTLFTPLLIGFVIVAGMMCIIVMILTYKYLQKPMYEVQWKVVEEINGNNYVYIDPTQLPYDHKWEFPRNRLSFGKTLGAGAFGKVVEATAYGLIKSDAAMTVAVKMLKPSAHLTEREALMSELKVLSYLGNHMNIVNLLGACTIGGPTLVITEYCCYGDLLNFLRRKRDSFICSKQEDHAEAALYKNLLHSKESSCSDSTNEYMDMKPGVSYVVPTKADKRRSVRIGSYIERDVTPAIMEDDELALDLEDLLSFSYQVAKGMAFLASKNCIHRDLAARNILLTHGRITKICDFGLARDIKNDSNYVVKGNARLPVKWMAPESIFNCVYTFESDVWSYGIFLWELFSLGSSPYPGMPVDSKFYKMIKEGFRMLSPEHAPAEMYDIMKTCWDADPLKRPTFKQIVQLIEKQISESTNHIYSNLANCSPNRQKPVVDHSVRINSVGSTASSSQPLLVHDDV

| Compound | IC50 (wild type c-kit) [nM] | efflux ratio at 2 h, 1 µM [1] | efflux ratio at 2 h, 0.1 µM [1] |
| --- | --- | --- | --- |
| COCCNc1cc2c(C(=O)Nc3cc(-c4nnn(C5CN(C(=O)OC)C5)n4)ccc3C)cnn2cc1Cl [Example 145, methyl 3-(5-(3-(6-chloro-5-((2-methoxyethyl)amino)pyrazolo[1,5-a]pyridine-3-carboxamido)-4-methylphenyl)-2H-tetrazol-2-yl)azetidine-1-carboxylate] | 157 | 6.4 | – |
| COC(=O)N1CC(c2cnn(-c3ccc(C)c(NC(=O)c4cnn5ccc(NCC6COC6)cc45)c3)n2)C1 [Example 140, methyl 3-(2-(4-methyl-3-(5-((oxetan-3-ylmethyl)amino)pyrazolo[1,5-a]pyridine-3-carboxamido)phenyl)-2H-1,2,3-triazol-4-yl)azetidine-1-carboxylate] | 24.1 | 72.2 | – |
| Cc1ccc(-c2nnn(C3CC3)n2)cc1NC(=O)c1cnn2ccc(-c3cnn(CCCN4CCOCC4)c3)cc12 [Example 220, N-(5-(2-cyclopropyl-2H-tetrazol-5-yl)-2-methylphenyl)-5-(1-(3-morpholinopropyl)-1H-pyrazol-4-yl)pyrazolo[1,5-a]pyridine-3-carboxamide] | 1.8 | 12.4 | – |
| Cc1ccc(-c2nnn(C)n2)cc1NC(=O)c1cnn2ccc(-c3cnn(CCO)c3)cc12 [Example 47, 5-(1-(2-hydroxyethyl)-1H-pyrazol-4-yl)-N-(2-methyl-5-(2-methyl-2H-tetrazol-5-yl)phenyl)pyrazolo[1,5-a]pyridine-3-carboxamide] | 9.8 | 16 | – |
| Cc1ccc(-c2nnn([C@H]3C[C@@H](C(F)(F)F)C3)n2)cc1NC(=O)c1cnn2ccc(N3CC(C)(O)C3)cc12 [Example 107, 5-(3-hydroxy-3-methylazetidin-1-yl)-N-(2-methyl-5-(2-((1s,3s)-3-(trifluoromethyl)cyclobutyl)-2H-tetrazol-5-yl)phenyl)pyrazolo[1,5-a]pyridine-3-carboxamide] | 5.5 | 28.9 | – |
| Cc1nn(CCO)cc1-c1ccn2ncc(C(=O)Nc3cc(-c4nnn(C5CC5)n4)ccc3Cl)c2c1 [Example 238, N-[2-chloro-5-(2-cyclopropyl-2H-1,2,3,4-tetrazol-5-yl)phenyl]-5-[1-(2-hydroxyethyl)-3-methyl-1H-pyrazol-4-yl]pyrazolo[1,5-a]pyridine-3-carboxamide] | 0.2 | – | 5.9 |
| O=C(Nc1cc(-n2nnc([C@H]3C[C@@H]3F)n2)ccc1Cl)c1cnn2ccc(-c3cnn(CC4(O)CCOCC4)c3)cc12 (single isomer, unassigned) [Example 271, N-(2-chloro-5-(5-((1R,2S)-2-fluorocyclopropyl)-2H-tetrazol-2-yl)phenyl)-5-(1-((4-hydroxytetrahydro-2H-pyran-4-yl)methyl)-1H-pyrazol-4-yl)pyrazolo[1,5-a]pyridine-3-carboxamide or N-(2-chloro-5-(5-((1S,2R)-2-fluorocyclopropyl)-2H-tetrazol-2-yl)phenyl)-5-(1-((4-hydroxytetrahydro-2H-pyran-4-yl)methyl)-1H-pyrazol-4-yl)pyrazolo[1,5-a]pyridine-3-carboxamide] | 0.3 | 2.2 | – |
| COC[C@](C)(O)Cn1cc(-c2ccn3ncc(C(=O)Nc4cc(-c5nnn(C6CC6)n5)ccc4C)c3c2)cn1 (single isomer, unassigned) [Example 267, (R)-N-(5-(2-cyclopropyl-2H-tetrazol-5-yl)-2-methylphenyl)-5-(1-(2-hydroxy-3-methoxy-2-methylpropyl)-1H-pyrazol-4-yl)pyrazolo[1,5-a]pyridine-3-carboxamide or (S)-N-(5-(2-cyclopropyl-2H-tetrazol-5-yl)-2-methylphenyl)-5-(1-(2-hydroxy-3-methoxy-2-methylpropyl)-1H-pyrazol-4-yl)pyrazolo[1,5-a]pyridine-3-carboxamide] | 1.4 | 2.9 | – |
| Cc1cnn(-c2ccc(C)c(NC(=O)c3cnn4ccc(-c5cnn(CCO)c5)cc34)c2)n1 [Example 57, 5-(1-(2-hydroxyethyl)-1H-pyrazol-4-yl)-N-(2-methyl-5-(4-methyl-2H-1,2,3-triazol-2-yl)phenyl)pyrazolo[1,5-a]pyridine-3-carboxamide] | 4 | 3.4 | – |
| C[C@](O)(CO)Cn1cc(-c2ccn3ncc(C(=O)Nc4cc(-n5nnc([C@@H]6C[C@H]6F)n5)ccc4Cl)c3c2)cn1 (single isomer, unassigned) [Example 273, N-(2-chloro-5-(5-((1S,2R)-2-fluorocyclopropyl)-2H-tetrazol-2-yl)phenyl)-5-(1-((R)-2,3-dihydroxy-2-methylpropyl)-1H-pyrazol-4-yl)pyrazolo[1,5-a]pyridine-3-carboxamide or N-(2-chloro-5-(5-((1R,2S)-2-fluorocyclopropyl)-2H-tetrazol-2-yl)phenyl)-5-(1-((R)-2,3-dihydroxy-2-methylpropyl)-1H-pyrazol-4-yl)pyrazolo[1,5-a]pyridine-3-carboxamide] | 0.5 | 4.9 | – |
| CC(C)(O)Cn1cc(-c2ccn3ncc(C(=O)Nc4cc(-c5nnn(C6CC6)n5)ccc4Cl)c3c2)cn1 [Example 234, N-(2-chloro-5-(2-cyclopropyl-2H-tetrazol-5-yl)phenyl)-5-(1-(2-hydroxy-2-methylpropyl)-1H-pyrazol-4-yl)pyrazolo[1,5-a]pyridine-3-carboxamide] | 0.5 | – | 3.8 |
| Cc1ccc(-c2nnn(C3CC(F)(F)C3)n2)cc1NC(=O)c1cnn2ccc(NCCO)cc12 [Example 101, N-(5-(2-(3,3-difluorocyclobutyl)-2H-tetrazol-5-yl)-2-methylphenyl)-5-((2-hydroxyethyl)amino)pyrazolo[1,5-a]pyridine-3-carboxamide] | 5.2 | 16 | – |
| COCCNc1cc2c(C(=O)Nc3cc(-c4nnn(C5CN(C(=O)OC)C5)n4)ccc3C)cnn2cc1F [Example 171, methyl 3-(5-(3-(6-fluoro-5-((2-methoxyethyl)amino)pyrazolo[1,5-a]pyridine-3-carboxamido)-4-methylphenyl)-2H-tetrazol-2-yl)azetidine-1-carboxylate] | 34.3 | 6 | – |
| COCCCc1ccn2ncc(C(=O)Nc3cc(-c4nnn(C5CN(C(=O)OC)C5)n4)ccc3C)c2c1 [Example 58, methyl 3-(5-(3-(5-(3-methoxypropyl)pyrazolo[1,5-a]pyridine-3-carboxamido)-4-methylphenyl)-2H-tetrazol-2-yl)azetidine-1-carboxylate] | 126 | 4.1 | – |
| COC(=O)N1CC(n2nnc(-c3ccc(C)c(NC(=O)c4cnn5ccc(N6CCN(C)CC6)cc45)c3)n2)C1 [Example 66, methyl 3-(5-(4-methyl-3-(5-(4-methylpiperazin-1-yl)pyrazolo[1,5-a]pyridine-3-carboxamido)phenyl)-2H-tetrazol-2-yl)azetidine-1-carboxylate] | 64.9 | 13.5 | – |
| Cc1cc(F)c(-c2nnn(C3CC3)n2)cc1NC(=O)c1cnn2ccc(-c3cnn(CC(C)(C)O)c3)cc12 [Example 207, N-(5-(2-cyclopropyl-2H-tetrazol-5-yl)-4-fluoro-2-methylphenyl)-5-(1-(2-hydroxy-2-methylpropyl)-1H-pyrazol-4-yl)pyrazolo[1,5-a]pyridine-3-carboxamide] | 1.4 | 16.2 | – |
| COCCNc1ccn2ncc(C(=O)Nc3cc(-n4ncc(C5CN(C(=O)OC)C5)n4)ccc3C)c2c1 [Example 110, methyl 3-(2-(3-(5-((2-methoxyethyl)amino)pyrazolo[1,5-a]pyridine-3-carboxamido)-4-methylphenyl)-2H-1,2,3-triazol-4-yl)azetidine-1-carboxylate] | 17.7 | 8.7 | – |
| Cc1ccc(-c2nnn(C3CC(F)(F)C3)n2)cc1NC(=O)c1cnn2ccc(N3CCC(C)(O)CC3)cc12 [Example 61, N-(5-(2-(3,3-difluorocyclobutyl)-2H-tetrazol-5-yl)-2-methylphenyl)-5-(4-hydroxy-4-methylpiperidin-1-yl)pyrazolo[1,5-a]pyridine-3-carboxamide] | 3.2 | 16.4 | – |
| Cc1nn(C[C@H]2CN(C)CCO2)c(C)c1-c1ccn2ncc(C(=O)Nc3cc(-c4nnn(C5CC5)n4)ccc3Cl)c2c1 [Example 274, (R)-N-(2-chloro-5-(2-cyclopropyl-2H-tetrazol-5-yl)phenyl)-5-(3,5-dimethyl-1-((4-methylmorpholin-2-yl)methyl)-1H-pyrazol-4-yl)pyrazolo[1,5-a]pyridine-3-carboxamide] | 0.6 | 1.7 | – |
| COCCNc1ccn2ncc(C(=O)Nc3cc(-c4nnn([C@H]5C[C@H](CO)C5)n4)c(F)cc3C)c2c1 [Example 202, N-(4-fluoro-5-(2-((1r,3r)-3-(hydroxymethyl)cyclobutyl)-2H-tetrazol-5-yl)-2-methylphenyl)-5-((2-methoxyethyl)amino)pyrazolo[1,5-a]pyridine-3-carboxamide] | 14.8 | 19.1 | – |
| Cc1cnn(-c2ccc(C)c(NC(=O)c3cnn4ccc(-c5cnn(C[C@@H]6CNCCO6)c5)cc34)c2)n1 [Example 204, (S)—N-(2-methyl-5-(4-methyl-2H-1,2,3-triazol-2-yl)phenyl)-5-(1-(morpholin-2-ylmethyl)-1H-pyrazol-4-yl)pyrazolo[1,5-a]pyridine-3-carboxamide] | 10.1 | 62.1 | – |
